7 molecules from PMC3926938 (Nature structural & molecular biology, 2012) can be followed below.

Experiment [1] concerns the target human PHF19-Tudor (residues 37–95) (human) (UniProt Q5T6S3). Nature of the experiment: NMR titration.
A further experiment concerns the target human PHF19-Tudor (Homo sapiens, UniProt Q5T6S3). Nature of the experiment: NMR chemical shift titration of Phf19-Tudor with histone H3 peptides. It is filed as binding. The following applies: for Kd increased by a factor (alanine mutant peptide vs wild-type peptide): NMR, point mutations in histone H3 amino acids 37–41.
Experiment [2] concerns the target human PHF19-Tudor (residues 37–95) (human, UniProt Q5T6S3 37-95). Nature of the experiment: NMR titration.

Square brackets hold non-standard residues; d marks the D form. Ends that are not written are not given here. Lys(Me3) = C[N+](C)(C)CCCC[C@H](N)C(=O)O

As for H3K36me2-containing peptide (NMR), the dissociation constant (Kd) (usually the constant that tells how readily two partners part at equilibrium) in experiment [1] came out at 295 µM. Same read-out and setting: the result for “11-mer H3K36me3 peptide (31-ATGGVKme3KPHRY-41)” reads 29 µM. As to 31-ATGGV-Kme3-K-37 [H3_31–36], the “binding to Phf19-Tudor (in words)” value at human PHF19-Tudor (NMR titration) is recorded as “unable to bind”. For 34-GV-Kme3-APHRY-41 [H3 K37A], at human PHF19-Tudor, the “Kd increased by a factor (alanine mutant peptide vs wild-type peptide)” value (shortened to “Kd increased by a factor”) is 2.1. Turning to 34GV-Kme3-KPHAY-41 [H3 R10A], the “Kd increased by a factor” value at human PHF19-Tudor is recorded as “did not increase”. For the molecule 34-GV-Kme3-KPHRA-41 [H3 Y41A], at human PHF19-Tudor, the “Kd increased by a factor” value is recorded as 1.6.

B1: short H3K36me3 peptide (34-GV-Kme3-KPHRY-41; called the 7-mer histone H3_(35–41) in the results) (peptide)
peptide: GV[Lys(Me3)]KPHRY
With B1, the affinity in experiment [2], expressed as Kd, was 44 µM.
